Common to all, as to assay type: physicochemical
A short description of data set [1]: Flowability, Jenike and Johanson Sifting Segregation tester (time for 200 g to fall through hopper orifice). Particulars: 200 g material, hydrochloride. As to the method:
The flowability of the equant-shaped crystals of memantine was measured using a Jenike and Johanson […] Segregation tester (Jenike and Johanson, Tyngsboro, Mass.). The time taken for 200 g of material to fall through the circular orifice of the hopper was measured. Two different hoppers were used: a shallow angle cone (Hopper A, 35° from horizontal) and a steep angle cone (Hopper B, 75° from horizontal). […] See, ASTM Standard D6941-03, and A. Alexander et al., Pharmaceutical Technology, Yearbook 2000, pp. 6-21.

A short description of data set [2]: Angle of repose, Hosakawa Micron powder tester. Conditions: hydrochloride. As to the method:
For pharmaceutical powders, a lower angle of repose value indicates better flow characteristics. The angle of repose was measured using a Hosakawa Micron powder tester, Model PT-N (Hosokawa Micron Powder systems, Summit, N.J.) using the instructions provided by the vendor. Also see Pharmaceutical Dosage Forms, Tablets, Volume 1, Herbert A. Lieberman, Leon Lachman, Joseph B. Schwartz, 1989, 2nd Ed.

A short description of data set [3]: Bulk density and tap density, Varian Tapped Density tester. Particulars: hydrochloride. As to the method: Bulk Density and Apparent Density after Tamping (Tap Density)
The bulk density and apparent density were measured using a Varian Tapped Density tester (Varian Inc.,) using the instructions provided by the vendor. Also see USP 29 (Tap-Bulk-Density).

A short description of data set [4]: Particle size distribution by laser diffraction. Conditions: equant: Helos BF with Rodos; needle: Mastersizer 2000; hydrochloride. As to the method:
The particle size distribution (average d90, d50 and d10 values) of the equant-shaped crystals of memantine was measured by Laser Diffraction technique using a Helos BF with Rodos instrument (Sympatec Inc, Lawrenceville, N.J.). The particle size distribution of the needle-shaped crystals of memantine was measured using a Mastersizer 2000 instrument (Malvern Instruments Limited, Worcestershire, UK).

Data set [5] is described as follows: Aspect ratio by scanning electron microscopy. Particulars: ratio of maximum length to minimum width; hydrochloride. The source says:
The aspect ratio refers to the ratio of the maximum length of a crystal to its minimum width. At an aspect ratio of 1, a crystal has an isometric crystal habit. With the aspect ratio decreasing below 1, the crystal habit becomes more and more plate-like. In contrast, when the aspect ratio increases more and more above 1, the crystal approaches a needle-like crystal habit. In accordance with the present invention, cubic-shaped crystals of memantine hydrochloride have an aspect ratio of preferably below about 5, such as, below about 3 (3.0), e.g., below about 2 (2.0). The lower limit of the aspect ratio is not critical. The aspect ratio is determined by means of scanning electron microscopy (SEM). The sample is spread onto a pure aluminum support and subsequently sputter-coated with a thin layer of Pd/Au (thickness in the nanometer range; sputter coater SCD 030 (Balzers)). Using a JSM 6400 Scanning Electron Microscope (JEOL, Japan) at an acceleration voltage of 20 keV and a working distance of 15 mm, SEM images are taken at 150-fold magnification. Electronic filtering and thresholding is used to improve the separation of particles in binary images from the background. For image analysis, ANALYSIS software version 5.0 (SIS, Muenster, Germany) is used. […]

Setting [6] is: Hopper A (shallow angle cone, 35° from horizontal).
Setting [7] is: Hopper B (steep angle cone, 75° from horizontal).

Structures can show the parent of a compound that is named as a salt.

As for `CC12CC3CC(C)(C1)CC(N)(C3)C2` [Equant-shaped crystals of Memantine HCl, memantine hydrochloride], the Flowability in data set [1] (setting [6]) is 38.3 g/s. In data set [1] (Hopper A (shallow angle cone, 35° from horizontal), listed as equant-shaped crystals), the Flowability entry was “about 38 g/s”. The molecule further gave a Flowability in data set [1] (setting [7]) of 13.6 g/s. In addition, the Flowability entry in data set [1] (Hopper B (steep angle cone, 75° from horizontal), listed as equant-shaped crystals) is given as “about 14 g/s”. Besides, in data set [2], the “Angle of Repose” value is on record as 43.1 °. Moreover, in data set [3], the “Bulk Density” value came to 0.51 g/cc, the “Compressibility Index” value turned out to be 16 and the “Tap Density” value came out at 0.61 g/cc. In data set [4], the “PSD d10” value is 10 μm, the “PSD d50” value worked out at 205 μm and the “PSD d90” value worked out at 376 μm. The “Aspect Ratio” value in data set [5] turned out to be 1.6.
`CC12CC3CC(C)(C1)CC(N)(C3)C2` [Needle-shaped crystals of Memantine HCl, memantine hydrochloride]: the Flowability entry in data set [1] (setting [6]) is “Does not flow”. Further, the Flowability result in data set [1] (Hopper A (shallow angle cone, 35° from horizontal), listed as needle-shaped crystals) was “do not flow”. Moreover, in data set [1] (setting [7]), the Flowability result is given as “Does not flow”. In addition, in data set [1] (Hopper B (steep angle cone, 75° from horizontal), listed as needle-shaped crystals), the Flowability result is “do not flow”. Also, in data set [2], the “Angle of Repose” value was found to be 66.2 °. In addition, in data set [3], the “Bulk Density” value was found to be 0.30 g/cc, the “Compressibility Index” value worked out at 40 and the “Tap Density” value is given as 0.50 g/cc. In addition, in data set [4], the “PSD d10” value worked out at 18.8 μm, the “PSD d50” value is 113.8 μm and the “PSD d90” value was 1229.4 μm. In addition, the “Aspect Ratio” value in data set [5] turned out to be 11.4.

The record behind these values is US20090247644A1, “MEMANTINE FORMULATIONS” (FOREST LABORATORIES HOLDINGS LIMITED, priority 2008, published 2009).
